{
  "source": "patent US20090042993A1",
  "about": "“IDENTIFICATION OF NOVEL POST-TRANSLATIONAL PROTEIN MODIFICATIONS” (priority 2007, published 2009)",
  "key": {"BACE1": {"test_system": "BACE1", "test": "Pulse-chase and cell-surface biotinylation of newly-synthesized BACE1", "type": "cell-based, human", "conditions": "BACE1WT expressing cells, 1.5 hours after the pulse", "procedure": "Confluent cells were starved for 1 hr in Met/Cys free medium, labeled with 100 μCi [^35S]-Met/Cys (Trans35S-Label, >1000 Ci/mmol; Pierce) in starvation medium/dish and chased for 8, 16, and 24 hours with DMEM supplemented with 5 mM cold Met/Cys. Cell extracts were pre-cleared with BioMag Protein A (Polysciences, Inc.). Beads were used at the concentration of 15 μl of the slurry per sample and separated with a magnetic holder. BACE1 was then immunoprecipitated with anti-BACE1 antibodies and recovered with BioMag Protein A as above. The immunoprecipitate-bead complexes were washed 3 times and boiled in sample buffer. Beads were then separated and the samples were analyzed by reducing SDS-PAGE (on a 4-12% Bis-Tris NuPAGE system) and autoradiography.\nFor cell-surface biotinylation, cells were labeled as above and chased for 1.5 hours. […] Proteins were eluted and recovered as above; BACE1 was then immunopurified and analyzed by reducing SDS-PAGE and autoradiography.\nFIG. 3 illustrates how transient lysine acetylation controls both translocation along the secretory pathway and molecular stability of the nascent BACE1 protein. […] Immunoprecipitates were analyzed by SDS-PAGE and autoradiography. […] BACE1 was then immunoprecipitated as above and analyzed by reducing SDS-PAGE and autoradiography. Results are expressed as percentage of total newly-synthesized BACE1. […]"}, "AT-1": {"test_system": "AT-1", "test": "AT-1 mRNA by real-time quantitative PCR in SH-SY5Y cells", "type": "cell-based, human", "conditions": "C6-cer 10 μM", "procedure": "FIG. 15(A): SH-SY5Y cells were treated with ceramide (C6-cer; 10 μM) prior to real-time quantitative PCR. Treatment was performed as previously described (Costantini et al., 2007; Costantini et al., 2005; Puglielli et al., 2003). Results are expressed as percent of control (n=5)±S.D. of control (no treatment). Asterisk (*) indicates statistical significance. […] FIG. 15(B): a cDNA library (frontal cortex) of late-onset AD (n=5 different subjects) and age-matched controls (n=5 different subjects) was analyzed by quantitative real-time PCR. Results are expressed as percent of age-matched controls±S.D. Asterisk (*) indicates statistical significance."}},
  "data": [
    {"smiles": "CCCCCCCCCCCCC/C=C/[C@@H](O)[C@H](CO)NC(=O)CCCCC", "note": "[ceramide, C6-ceramide]", "values": [
      {"measurement": "translocation of newly-synthesized BACE1 to the cell surface", "setting": "BACE1", "result": "increasing the translocation of newly-synthesized BACE1 to the cell surface to levels almost similar to BACE1Gln"},
      {"measurement": "AT-1 mRNA level", "setting": "AT-1", "result": "upregulated"}
    ]}
  ]
}
